One test has as its system S.Tm efflux pumps. In words: Hoechst 33342 accumulation assay. Type of test: cell-based, Salmonella enterica serovar Typhimurium. As for the experimental part: Efflux pumps (EPs) represent a key pathogen virulence strategy to protect against host antimicrobials as well as therapeutic antibiotics. […] To uncover putative EPMs within our collection of hits, 58 repurchased compounds were screened in a Hoechst accumulation assay. Bacteria were incubated with Hoechst 33342, a dye which fluoresces when bound to DNA.
Hoechst accumulation assays were performed essentially as described in the literature. Briefly, overnight Salmonella cultures were washed 3 times in PBS and diluted to an OD of 0.1 in PBS with 2.5 μM Hoechst 33342 in the presence of the indicated concentrations of compounds. Fluorescence was monitored on a Biotek Synergy 2 with a 360/40 nm excitation filter and 460/40 nm emission filter. The maximum Hoechst fluorescence over 60 minutes of incubation was normalized to the signal from the equivalent number of heat-killed bacteria, after subtraction of autofluroescent signal determined from compound incubated in the absence of bacteria. Curve fitting to determine EC50s was performed using GraphPad Prism.

In a further test the test system is S.Tm. The experiment in a line: Swimming assay in soft agar (proton motive force). The settings on record: 50 mM, 10 μl on disk (500×, 125×, ~62.5× the MIC for EPM30, EPM35, EPM43). Type of test: cell-based, Salmonella enterica serovar Typhimurium.
Another test has as its system wild-type S.Tm. The experiment in a line: Growth in broth with antimicrobial peptides (polymyxin B, LL-37) and EPMs. Type of test: cell-based, Salmonella enterica serovar Typhimurium. Particulars: polymyxin B 5 μg/ml (⅛ MIC) + 25 μM EPM. An excerpt:
Next, it was investigated how EPMs might lead to bacterial clearance within host cells. […] Instead, EPMs may synergize with a host antimicrobial(s) that is effluxed by EPs. Two S.Tm EPs are necessary for infection of macrophages and mice (FIG. 10). The first EP, MacAB, is important for defense against ROS. The second S.Tm EP, AcrAB, is a homolog of MtrCDE, an EP in Neisseria gonorrhoeae which exports host antimicrobial peptides (AMPs). AcrAB thus likely exports AMPs as well as a variety of other substrates including antibiotics, dyes, and detergents. To test whether the EPMs synergize with macrophage defenses, wild-type bacteria was exposed in broth to ROS or AMPs in the presence of EPMs. […] Next, the two AMPs were tested: polymyxin B is a model peptide produced by bacteria; LL-37 is a human cathelicidin produced by macrophages.
Overnight Salmonella cultures were washed 3 times in PBS and diluted to an OD of 0.01 in Mueller Hinton Broth in 96-well flat bottom plates. Compound was added using a pin tool (CyBio) or manually, yielding a final concentration of no more than 1% DMSO. Plates were grown at 37° C. shaking and OD600 was monitored using a BioTek Eon incubator shaker microplate absorbance reader. For experiments in defined media, bacteria were grown in M9 minimal media supplemented with 100 mM Tris pH 7.4, 0.35% glycerol, 0.002% histidine, 10 mM MgCl2, and 0.1% casamino acids. […]

Test [1] relates to S.Tm wild-type SL1344, MAR1 and S10801. In words: microbe, parasite or virus in culture. Type of test: cell-based, Salmonella enterica serovar Typhimurium. The settings on record: for sensitivity of MDR S.Tm to tetracycline: MAR1 and S10801. The procedure: Increased expression or function of efflux pumps often contributes to clinical multidrug resistance. Therefore, whether the EPMs re-sensitize two multidrug resistant strains of S.Tm to tetracycline was tested. Tetracycline is an antibiotic exported by AcrAB. The MAR1 strain is derived from wild-type SL1344 was selected by exposure to tetracycline, and has increased expression of the AcrAB efflux pump. S10801 is an MDR strain isolated from the mesenteric lymph node of a septic calf and is resistant to tetracycline, ampicillin, chloramphenicol, nalidixic acid, and triple sulfa. The basis of multi-drug resistance in this strain is unknown.
Overnight Salmonella cultures were washed 3 times in PBS and diluted to an OD of 0.01 in Mueller Hinton Broth in 96-well flat bottom plates. Compound was added using a pin tool (CyBio) or manually, yielding a final concentration of no more than 1% DMSO. Plates were grown at 37° C. shaking and OD600 was monitored using a BioTek Eon incubator shaker microplate absorbance reader. For experiments in defined media, bacteria were grown in M9 minimal media supplemented with 100 mM Tris pH 7.4, 0.35% glycerol, 0.002% histidine, 10 mM MgCl2, and 0.1% casamino acids. Where indicated, media was supplemented with 5 μg/ml polymyxin B or 0.2 mM H2O2. For experiments with LL-37, bacteria were grown in M9 minimal media supplemented with 0.4% dextrose, 0.004% histidine, 1 mM MgSO4, and 5 μg/ml LL-37. For checkerboard assays, MIC was defined as the concentration at which no growth was visually observed.

The test system of the next test is K. pneumoniae. The experiment in a line: Nile Red export in MDR clinical isolate. The settings on record: after glucose addition. Type of test: cell-based, Klebsiella pneumoniae. An excerpt: (§1) Six pathogens that cause the bulk of MDR nosocomial infections have been dubbed the ESKAPE pathogens: Enterococcus faecium, Staphylococcus aureus, Klebsiella pneumoniae, Acinetobacter baumannii, Pseudomonas aeruginosa, and Enterobacter species (56).
(§2) Referring to FIGS. 22A-22D: Defined strains obtained from BEI resources were examined for Nile Red retention after glucose addition in the presence of the indicated compound. *p<0.05; **p<0.01; ***p<0.001; ****p<0.0001 as determined by comparison to DMSO+glucose with a one-way ANOVA and Dunnett's multiple comparison post-test.
(§3) Nile Red assays were adapted from an established protocol. Briefly, overnight Salmonella cultures were grown in Mueller-Hinton cation-adjusted broth (Sigma), washed, and resuspended at an OD600 of 2.0. Cells were incubated in 10 μM Nile Red for 3 hours at 37° C. with aeration, then moved to room temperature for 1 hour. After pelleting at 2000× g, dye-loaded cells were aliquoted and combined with compound at the indicated concentrations. Two hundred microliters was loaded into 96-well black walled plates (Greiner) and read using a Varioskan Flash Multimode Reader with 540 nm excitation and 625 nm emission filters. We observed that during loading into plates (˜20 minutes), bacteria were able to efflux Nile Red even in the absence of glucose (FIG. 8A). […]

For a further test, the system named is Enterobacter cloacae. In words: Nile Red export in MDR clinical isolate. The format is cell-based. Particulars: after glucose addition.
Description: as §1, §2, §3

For a further test, the system named is E. coli. The experiment in a line: Nile Red export in E. coli. The format is cell-based. The settings on record: after glucose addition.
Description: as §1, §2, §3

“Also recorded” adds a separate entry of the source. Where two headings read alike, the source gives them in different places.

`Cc1ccc(Sc2cccc3nc(N)nc(N)c23)cc1` [EPM43]: the “Hoechst accumulation / fluorescence” value in the test with S.Tm efflux pumps is “increased S.Tm accumulation of Hoechst in a dose-dependent manner; also recorded: fluorescence comparable to that of PAβN”. The “halo in swimming assay” value in the test with S.Tm is recorded as “formed no halo”. The “growth on co-treatment with polymyxin B” value in the test with wild-type S.Tm is listed as “completely inhibited growth”. The “sensitivity of MDR S.Tm to tetracycline” value in test [1] is “not”. The “Nile Red export” value in the test on K. pneumoniae, in the test on Enterobacter cloacae and with E. coli was “significantly reduced Nile Red export” throughout.
For the molecule `OC(COc1ccc(Cl)c(Cl)c1)CN1CCC(Nc2nccc(C(F)(F)F)n2)CC1` (stereo not shown) [EPM35], in the test with S.Tm efflux pumps, the “Hoechst assay EC50 relative to PAβN” value is recorded as “lower than that of PAβN”. Moreover, the “Hoechst accumulation / fluorescence” value in the test with S.Tm efflux pumps (wild-type S.Tm, 60 minutes) was “increased S.Tm accumulation of Hoechst in a dose-dependent manner; also recorded: fluorescence comparable to that of PAβN”. The “halo in swimming assay” value in the test on S.Tm was “formed a small halo”. Further, the “growth on co-treatment with polymyxin B” value in the test with wild-type S.Tm was “completely inhibited growth”. For the same molecule, the “decrease of the tetracycline MIC” value in test [1] (50 μM (⅛ MIC), both strains MAR1 and S10801) was 4 fold. In test [1], the “sensitivity of MDR S.Tm to tetracycline” value was “increased sensitivity to tetracycline”. Moreover, the “Nile Red export” value with K. pneumoniae, in the test on Enterobacter cloacae and in the test with E. coli was “significantly reduced Nile Red export” each time.

(Values after patent US11110080B2, “Small molecule inhibitors of bacterial efflux pumps and methods of using same” (The Regents of the University of Colorado, a body Corporate, priority 2017, dated 2021).)
